Source: patent US20260364213A1, “RADIOLABELED COMPOUNDS OF TRIMETHOPRIM AND USES THEREOF” (THE TRUSTEES OF THE UNIVERSITY OF PENNSYLVANIA, priority 2023, published 2026)
“Also recorded” adds a separate entry of the source.

Key:
I45 and SKOV3 cells = experiment: Cytotoxicity in wild-type and eDHFR-YFP-expressing I45 and SKOV3 cells; type: cell-based, human
Experimental: After 72 hours of incubation, the surviving fraction of the cells was quantified using CellTiter-Glo (Promega #G9243). See, Makvandi, Molecular cancer therapeutics. […] The assay was performed three times in triplicates. […] See, Lee, Journal of nuclear medicine.

OVCAR8-eDHFR-Luc cells = experiment: Kill assay (MTT) in OVCAR8-eDHFR-Luc cells; type: cell-based, human; conditions: 18.5 MBq, 1 h; viability to day 12
Experimental: Following the same uptake protocol till washing after the third wash the cells were counted using cell counter and they were diluted to generate even number of cells/mL. […] We've applied the same blocked conditions used in the uptake assay. […] Then cells will be re-distributed into 96 well plates (2,000 cells/well) with fresh media to monitor cell proliferation by MTT assay on days 1, 3, 7 and 10. A total of 9 wells (3×3) were measured on the plate per sample per time point. To complete the assay cell media was removed and replaced with 50 μL of serum free media and 50 μL of MTT reagent. The plates were covered with tin foil and incubated at 37 °C for 3 hours. The plates were shaken at 200 rpm at 37 °C for 15 min. Using the microplate plate reader, sample absorbance was measured at 590 nm for 600 ms. Controls included [^131I]NaI treated cells and blocking with 10 μM parent TMP (unlabeled). An analogous procedure was used for the OVCAR8-eDHFR-Luc kill assay with different doses (1.85-37 MBq) and treatment times.
To investigate the therapeutic potential of m[^131I]mI-TMP 5b in tumor cell lines, OVCAR8 eDHFR+ cells were exposed to varying doses (ranging from 1.85-37 MBq) of the radiotracer of 5b at different incubation times. Different conditions were employed to assess the selective therapeutic effect of the radio tracer on eDHFR+ cells. To determine the specific killing of eDHFR+ tumor cells, blocked conditions were analyzed. The cell viability of compound 5b-treated cells was also compared with the cells exposed to [^131I]I—Na. Additionally, untreated cells were used as controls. The MTT assay was used to measure the cell viability of the cells under the aforementioned conditions on days 1, 3, 7, and 12.
OVCAR8-eDHFR-Luc+ cells were treated with 1.85 and 18.5 MBq of m[^131I]mI-TMP 5b and [^131I]I—Na, incubated for 1 hour. […] The cell viability of the compound 5b-treated cells was similar to cells under blocked, [^131I]NaI, and no drug conditions. See, FIG. 2A. […] See, FIG. 2B. Based on the results obtained, a continued dose escalation was considered to better understand the therapeutic window. Finally, OVCAR_eDHFR+ cells were tested with 37 MBq dose of m[^131I]mI-TMP.

IMR5 cells = experiment: Cytotoxicity in IMR5 cells with subcellular eDHFR-YFP; type: cell-based, human
Experimental: Using standard cloning procedures and DNA sequence synthesis, the recombinant eDHFR protein was modified in the following ways. First, the eDHFR nucleotide sequence was extended with a yellow fluorescent protein (YFP) domain at the C-terminus to construct a fusion eDHFR-YFP protein. See, Sellmyer, Mol Ther 2020; 28:42-51. Then, one of the following localization domains was added: simian virus 40 nuclear localization signal (NLS) at the N-terminus, human immunodeficiency virus Rev protein nuclear export signal (NES) at the C-terminus, and Saccharolobus solfataricus P2 DNA-binding domain 7d (DNAB) at the N-terminus. See, Kobayashi, Antimicrob Agents Chemother 2006; 50:1118-1119; and Kalichuk, Sci Rep 2016; 6:37274. The resulting library of pUC57 plasmids, each containing one of NLS-eDHFR-YFP, eDHFR-YFP-NES, and DNAB-eDHFR-YFP, were successfully cloned into a lentiviral vector. The lentiviral plasmids were introduced into HEK293T cells for viral production and isolation.
Then, three human cancer cell lines were cultured: HCT116 (colorectal cancer), IMR5 (neuroblastoma), and SKOV3 (ovarian cancer). They were transfected with the three lentiviral constructs for expression of NLS-eDHFR-YFP, eDHFR-YFP-NES, and DNAB-eDHFR-YFP, resulting in nine cell lines in total. Subcellular localization of eDHFR-YFP in the cell lines was verified with fluorescence microscopy.
Cytotoxicity experiments were performed as follows: wild-type IMR5 cells as well as those expressing eDHFR-YFP localized to the DNA, nucleus, and cytoplasm were treated with various concentrations of ^211At-PAB-TMP for 72 hours. The survival fraction for each treatment condition was measured with luminescent cell viability assay.
The resulting survival vs. dose curves were analyzed to determine effective concentrations for 50% reduction in cell viability (EC50). See, FIGS. 16A-16C. […] See, FIGS. 16A-16C. […] 6; 20(7): 1752-1755.

eDHFR [1] = biological target: T1, eDHFR (Escherichia coli, UniProt P0ABQ4); type: cell-based; conditions: for affinity for eDHFR binding in cells: HCT116 cells, non-radiolabeled, vs para-benzyl-iodo-TMP; for EC50: read-out: EC50 for eDHFR binding, HCT-116 cells, tsLuc-DD-DHFR, compounds not radiolabeled
T1 sequence (P0ABQ4 1-159): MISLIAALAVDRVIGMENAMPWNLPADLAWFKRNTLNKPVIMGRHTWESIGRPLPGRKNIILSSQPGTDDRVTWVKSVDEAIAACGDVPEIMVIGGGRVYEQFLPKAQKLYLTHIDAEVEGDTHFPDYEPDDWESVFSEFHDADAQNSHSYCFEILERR

eDHFR [2] = biological target: T1, eDHFR; experiment: Differential scanning fluorimetry (thermal shift assay); type: binding; conditions: 0.1 mg/mL protein, 10 mM stock compound, 20-95 °C ramp
Experimental: Purified protein is diluted to 0.1 mg/mL protein in 500 μL in mild buffer, 25 mM HEPES pH=7.5, 200-500 mM NaCl, DTT. 17 μL of the 0.1 mg/mL protein sample is aliquoted into an opaque white 384 well PCR plate. Then 2 μL of stabilizing additive or 1 μL additive and 1 μL of concentrated drug (10 mM TMP or 10 mM cold mI-TMP or vehicle, plus 1 μL of 1×SYPRO Orange dye was added and the total well volume is 20 μL. The plate is sealed with clear optical cover, protect it from light with foil, and let it incubate for 5 minutes. Then the plate is centrifuged at 3,600×g for 2 minutes. The plate is analyzed on RT-PCR machine using a temperature-ramp method that ranges from 20-95 °C.

Serum stability in FBS = type: in vitro ADME; conditions: non-radioactive compound, FBS, 37 °C, 72 h
Experimental: In vitro serum stability of was performed by adding the [^131I]mI-TMP (50 μL, 1.85 MBq) to fetal bovine serum (500 μL). The mixture was then incubated in a ThermoMixer (800 rpm) at 37 °C, and deiodination was analyzed by radio-TLC (10% NH40Ac:MeOH=3:7) at 0, 24, and 72 h. In this condition, free I-131 moved to solvent front whereas intact [^131I]I-TMP remained at the origin.

Molecule: COc1cc(Cc2cnc(N)nc2N)cc(OC)c1OC [TMP, trimethoprim]
- cytotoxicity at the lowest TMP concentration (I45 and SKOV3 cells; 40 μM, all cell types): non-toxic
- cytotoxicity from non-radiolabeled TMP in cells expressing membrane-bound eDHFR-YFP (I45 and SKOV3 cells; 72 h): higher cytotoxicity

Molecule: [131I-].[Na+] [[^131I]I—Na, reference compound]
- cytotoxic effect / cell viability (OVCAR8-eDHFR-Luc cells): showed viability and significant growth

Molecule: COc1cc(Cc2cnc(N)nc2N)cc(OC)c1OCc1ccc([211At])cc1 [^211At-PAB-TMP, ^211At-para-astatobenzyl-trimethoprim]
- cytotoxicity by eDHFR-YFP subcellular location (IMR5 cells; IMR5 cells, 72 hours, luminescent viability): Higher cytotoxicity was seen with increasing proximity to DNA, resulting in significantly lower EC50 values; also recorded: highest in the IMR5 cells expressing DNA-bound eDHFR-YFP, followed by nuclear and cytoplasmic eDHFR-YFP

Molecule: O=C1NCCn2c(-c3ccc([211At])cc3)nc3cccc1c32 [^211At-PTT, reference compound]
- difference in cytotoxicity among the eDHFR IMR5 cells (IMR5 cells; positive control): no difference in cellular toxicity; also recorded: did not result in difference in cytotoxicity among the IMR5 cells

Molecule: COc1cccc2c1C(=O)c1c(O)c3c(c(O)c1C2=O)C[C@@](O)(C(=O)CO)C[C@@H]3O[C@H]1C[C@H](N)[C@H](O)[C@H](C)O1 [doxorubicin, reference compound]
- cytotoxicity of doxorubicin, wild-type vs eDHFR-YFP-expressing cells (I45 and SKOV3 cells; 72 h, 10 nM-1 μM): comparable cytotoxicity; also recorded: comparable chemosensitivity

Molecule: COc1cc(Cc2cnc(N)nc2N)cc(Br)c1OC [mBr-TMP]
- affinity for eDHFR binding in cells (eDHFR [1]): higher affinity for eDHFR binding in cells than the para-benzyl-iodo-TMP
- EC50 (eDHFR [1]): 5 nM

Molecule: COc1cc(Cc2cnc(N)nc2N)cc(I)c1OC [mI-TMP, 5-(3-iodo-4,5-dimethoxybenzyl)pyrimidine-2,4-diamine]
- stabilization of eDHFR in thermal shift assay (DSF) (eDHFR [2]): stabilizes eDHFR as TMP
- stabilization of eDHFR in thermal shift assay (DSF) (eDHFR [2]; listed as TMP-I (3b)): strongly stabilizes eDHFR, similar to TMP
- affinity for eDHFR binding in cells (eDHFR [1]): higher affinity for eDHFR binding in cells than the para-benzyl-iodo-TMP
- EC50 (eDHFR [1]): 5 nM
- stability in FBS by LCMS (Serum stability in FBS): confirmed the stability of TMP-I (3a) in FBS

Molecule: ^211At-para-astatobenzyl-trimethoprim [^211At-PAB-TMP]
- killing of eDHFR expressing neuroblastoma cells (IMR5 cells): enhanced killing of eDHFR expressing neuroblastoma cells
